From patent publication US12479847B2 (DANA-FARBER CANCER INSTITUTE, INC., priority 2019, dated 2025)

Legend:
Test in all cases: KINOMEscan (ScanMAX) kinase profiling
Assay type in all cases: binding
panel of 468 kinases [1] = molecular target: T1, panel of 468 kinases (Homo sapiens, UniProt P06241); conditions: FYN; 1 μM; read-out: % control
T1 construct: purchased KINOMEscan (ScanMAX) service

panel of 468 kinases [2] = molecular target: T2, panel of 468 kinases (Homo sapiens, UniProt P10721, L576P); conditions: KIT(L576P); 1 μM; read-out: % control
T2 construct: purchased KINOMEscan (ScanMAX) service
T2 sequence (P10721 26-976 L576P): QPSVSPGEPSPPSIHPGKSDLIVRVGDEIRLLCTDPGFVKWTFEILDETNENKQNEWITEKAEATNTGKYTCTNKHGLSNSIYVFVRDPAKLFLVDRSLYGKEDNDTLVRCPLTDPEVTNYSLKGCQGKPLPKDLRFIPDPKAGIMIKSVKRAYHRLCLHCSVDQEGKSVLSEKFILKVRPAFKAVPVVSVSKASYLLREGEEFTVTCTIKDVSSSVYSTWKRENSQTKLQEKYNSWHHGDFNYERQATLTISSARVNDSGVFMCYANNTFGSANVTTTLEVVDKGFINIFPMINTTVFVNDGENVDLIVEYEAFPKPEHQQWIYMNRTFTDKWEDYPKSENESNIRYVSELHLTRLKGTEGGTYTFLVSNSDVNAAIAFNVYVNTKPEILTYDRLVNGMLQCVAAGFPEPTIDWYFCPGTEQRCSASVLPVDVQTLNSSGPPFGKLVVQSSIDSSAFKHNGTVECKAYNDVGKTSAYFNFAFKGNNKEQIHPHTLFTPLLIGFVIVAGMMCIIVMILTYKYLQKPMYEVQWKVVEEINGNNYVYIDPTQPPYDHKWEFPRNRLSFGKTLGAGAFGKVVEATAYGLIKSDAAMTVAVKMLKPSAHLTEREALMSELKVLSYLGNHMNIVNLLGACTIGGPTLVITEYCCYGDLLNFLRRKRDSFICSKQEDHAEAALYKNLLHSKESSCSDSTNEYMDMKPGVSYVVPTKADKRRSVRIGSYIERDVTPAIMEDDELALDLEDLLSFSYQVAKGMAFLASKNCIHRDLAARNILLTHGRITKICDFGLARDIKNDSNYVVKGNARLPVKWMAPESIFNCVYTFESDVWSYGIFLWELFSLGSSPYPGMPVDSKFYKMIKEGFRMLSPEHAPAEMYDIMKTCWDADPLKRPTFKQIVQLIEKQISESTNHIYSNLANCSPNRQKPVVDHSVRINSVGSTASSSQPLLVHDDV

panel of 468 kinases [3] = molecular target: T3, panel of 468 kinases (Homo sapiens, UniProt P35590); conditions: TIE1; 1 μM; read-out: % control
T3 construct: purchased KINOMEscan (ScanMAX) service
T3 sequence (P35590 22-1138): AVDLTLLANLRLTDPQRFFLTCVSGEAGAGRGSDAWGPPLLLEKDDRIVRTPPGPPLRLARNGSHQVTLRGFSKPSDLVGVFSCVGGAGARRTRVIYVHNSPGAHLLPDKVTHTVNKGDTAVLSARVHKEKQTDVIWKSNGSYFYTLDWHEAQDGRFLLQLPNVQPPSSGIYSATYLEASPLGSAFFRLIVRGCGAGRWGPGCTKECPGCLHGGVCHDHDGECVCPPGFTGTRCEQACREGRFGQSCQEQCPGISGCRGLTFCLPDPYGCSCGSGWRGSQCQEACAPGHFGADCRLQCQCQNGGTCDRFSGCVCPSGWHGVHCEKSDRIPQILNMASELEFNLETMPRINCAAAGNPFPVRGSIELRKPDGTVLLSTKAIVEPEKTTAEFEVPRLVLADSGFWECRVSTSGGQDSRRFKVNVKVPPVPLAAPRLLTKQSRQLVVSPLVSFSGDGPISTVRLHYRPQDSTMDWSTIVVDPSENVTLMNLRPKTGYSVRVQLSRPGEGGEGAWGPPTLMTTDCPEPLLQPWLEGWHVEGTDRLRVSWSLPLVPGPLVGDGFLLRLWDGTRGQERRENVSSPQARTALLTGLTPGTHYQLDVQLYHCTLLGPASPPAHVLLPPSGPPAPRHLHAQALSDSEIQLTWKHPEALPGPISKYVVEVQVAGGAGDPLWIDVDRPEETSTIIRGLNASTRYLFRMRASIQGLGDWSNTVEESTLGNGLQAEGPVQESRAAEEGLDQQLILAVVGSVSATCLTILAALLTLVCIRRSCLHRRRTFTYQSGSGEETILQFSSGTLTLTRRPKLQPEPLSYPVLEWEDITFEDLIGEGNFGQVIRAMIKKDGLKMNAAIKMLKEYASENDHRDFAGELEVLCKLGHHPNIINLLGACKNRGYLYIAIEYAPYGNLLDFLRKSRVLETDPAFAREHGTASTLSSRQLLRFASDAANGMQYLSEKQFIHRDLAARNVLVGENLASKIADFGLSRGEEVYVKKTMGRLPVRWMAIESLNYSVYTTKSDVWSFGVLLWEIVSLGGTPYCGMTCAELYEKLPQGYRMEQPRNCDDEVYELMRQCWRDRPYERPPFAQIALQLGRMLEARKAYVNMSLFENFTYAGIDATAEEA

panel of 468 kinases [4] = molecular target: T4, panel of 468 kinases (Homo sapiens, UniProt Q13627); conditions: DYRK1A; 1 μM; read-out: % control
T4 construct: purchased KINOMEscan (ScanMAX) service

panel of 468 kinases [5] = molecular target: T5, panel of 468 kinases (Homo sapiens, UniProt Q86YV6); conditions: MYLK4; 1 μM; read-out: % control
T5 construct: purchased KINOMEscan (ScanMAX) service
T5 sequence (Q86YV6 1-388): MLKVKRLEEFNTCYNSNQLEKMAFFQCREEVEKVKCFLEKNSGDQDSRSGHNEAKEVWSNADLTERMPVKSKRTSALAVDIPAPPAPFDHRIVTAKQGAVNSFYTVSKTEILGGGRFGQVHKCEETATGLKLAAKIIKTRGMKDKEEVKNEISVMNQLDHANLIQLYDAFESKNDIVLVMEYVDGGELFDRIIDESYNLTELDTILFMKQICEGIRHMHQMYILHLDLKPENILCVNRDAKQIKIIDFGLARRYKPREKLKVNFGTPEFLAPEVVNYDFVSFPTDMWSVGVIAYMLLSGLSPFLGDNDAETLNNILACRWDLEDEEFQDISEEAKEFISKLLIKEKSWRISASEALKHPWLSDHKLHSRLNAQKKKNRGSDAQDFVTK

panel of 468 kinases [6] = molecular target: T6, panel of 468 kinases (Homo sapiens, UniProt Q9NRH2); conditions: SNRK; 1 μM; read-out: % control
T6 construct: purchased KINOMEscan (ScanMAX) service
T6 sequence (Q9NRH2 1-765): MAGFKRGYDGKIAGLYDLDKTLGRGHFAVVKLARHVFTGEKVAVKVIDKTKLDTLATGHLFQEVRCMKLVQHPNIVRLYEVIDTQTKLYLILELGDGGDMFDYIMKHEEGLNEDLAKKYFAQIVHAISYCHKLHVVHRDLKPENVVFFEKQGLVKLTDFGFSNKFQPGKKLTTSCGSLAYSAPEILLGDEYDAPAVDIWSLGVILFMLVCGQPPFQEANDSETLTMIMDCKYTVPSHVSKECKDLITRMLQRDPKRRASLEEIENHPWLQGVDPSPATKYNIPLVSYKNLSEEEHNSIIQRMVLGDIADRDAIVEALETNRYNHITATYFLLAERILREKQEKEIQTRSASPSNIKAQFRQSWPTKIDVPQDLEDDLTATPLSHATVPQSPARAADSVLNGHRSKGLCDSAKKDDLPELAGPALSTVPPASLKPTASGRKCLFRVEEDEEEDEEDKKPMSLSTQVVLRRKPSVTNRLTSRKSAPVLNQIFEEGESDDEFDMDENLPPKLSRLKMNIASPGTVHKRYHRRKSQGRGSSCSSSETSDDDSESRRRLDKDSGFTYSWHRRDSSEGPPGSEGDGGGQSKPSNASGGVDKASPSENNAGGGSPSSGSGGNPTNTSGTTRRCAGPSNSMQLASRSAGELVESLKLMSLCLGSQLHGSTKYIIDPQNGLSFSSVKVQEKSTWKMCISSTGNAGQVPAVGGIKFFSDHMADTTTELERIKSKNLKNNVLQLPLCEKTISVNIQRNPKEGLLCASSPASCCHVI

panel of 468 kinases [7] = molecular target: T7, panel of 468 kinases (Homo sapiens, UniProt Q9UKI8); conditions: TLK1; 1 μM; read-out: % control
T7 construct: purchased KINOMEscan (ScanMAX) service
T7 sequence (Q9UKI8 1-766): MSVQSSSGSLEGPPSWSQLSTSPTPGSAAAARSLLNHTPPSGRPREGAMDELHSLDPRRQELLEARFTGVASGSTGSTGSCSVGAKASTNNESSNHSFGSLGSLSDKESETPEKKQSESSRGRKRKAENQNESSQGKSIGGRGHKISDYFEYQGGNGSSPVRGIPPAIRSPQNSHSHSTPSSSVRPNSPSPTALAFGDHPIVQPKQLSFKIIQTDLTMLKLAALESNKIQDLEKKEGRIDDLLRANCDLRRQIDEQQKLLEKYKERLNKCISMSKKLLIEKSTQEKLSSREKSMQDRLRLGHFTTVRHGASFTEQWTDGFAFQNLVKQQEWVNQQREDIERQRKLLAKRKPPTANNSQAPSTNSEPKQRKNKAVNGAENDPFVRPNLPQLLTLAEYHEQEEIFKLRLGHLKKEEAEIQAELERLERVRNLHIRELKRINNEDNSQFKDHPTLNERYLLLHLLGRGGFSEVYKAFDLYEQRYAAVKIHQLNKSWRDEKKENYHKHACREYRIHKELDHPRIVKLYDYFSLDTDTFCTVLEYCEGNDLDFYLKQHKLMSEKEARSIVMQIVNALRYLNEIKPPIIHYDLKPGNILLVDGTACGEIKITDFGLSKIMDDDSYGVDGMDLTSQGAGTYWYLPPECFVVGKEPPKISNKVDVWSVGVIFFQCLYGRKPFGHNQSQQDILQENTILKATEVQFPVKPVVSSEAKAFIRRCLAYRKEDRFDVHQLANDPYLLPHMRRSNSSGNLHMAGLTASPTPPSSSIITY

T1 sequence (P06241 whole entry): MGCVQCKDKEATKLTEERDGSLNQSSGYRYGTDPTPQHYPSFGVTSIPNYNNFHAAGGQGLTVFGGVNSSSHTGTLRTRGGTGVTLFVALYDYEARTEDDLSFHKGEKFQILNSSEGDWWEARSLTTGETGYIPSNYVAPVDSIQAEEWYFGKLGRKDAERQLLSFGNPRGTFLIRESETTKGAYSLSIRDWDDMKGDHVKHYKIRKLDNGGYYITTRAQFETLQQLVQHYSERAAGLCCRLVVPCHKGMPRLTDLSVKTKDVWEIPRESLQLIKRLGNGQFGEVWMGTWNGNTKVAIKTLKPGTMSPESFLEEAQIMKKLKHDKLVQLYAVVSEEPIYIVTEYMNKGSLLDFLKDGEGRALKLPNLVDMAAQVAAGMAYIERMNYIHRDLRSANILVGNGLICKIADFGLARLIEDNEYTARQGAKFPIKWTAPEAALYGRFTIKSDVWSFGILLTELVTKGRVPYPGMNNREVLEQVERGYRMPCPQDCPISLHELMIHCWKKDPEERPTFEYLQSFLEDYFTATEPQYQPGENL

SMILES	remaining binding at 1 µM (panel of 468 kinases [1])	remaining binding at 1 µM (panel of 468 kinases [2])	remaining binding at 1 µM (panel of 468 kinases [3])	remaining binding at 1 µM (panel of 468 kinases [4])	remaining binding at 1 µM (panel of 468 kinases [5])	remaining binding at 1 µM (panel of 468 kinases [6])	remaining binding at 1 µM (panel of 468 kinases [7])
CNc1nc(Nc2ccc(S(=O)(=O)N3CCC(N4CCOCC4)CC3)cc2OC)nc2[nH]cc(Cl)c12 [Compound 12, 5-chloro-N2-(2-methoxy-4-((4-morpholinopiperidin-1-yl)sulfonyl)phenyl)-N4-methyl-7H-pyrrolo[2,3-d]pyrimidine-2,4-diamine]	100%	97%	100%	14%	100%	91%	89%
CNc1nc(Nc2ccc(C(=O)N3CCC(N4CCOCC4)CC3)c3c2OCO3)nc2[nH]cc(Cl)c12 [Compound 75, (7-((5-chloro-4-(methylamino)-7H-pyrrolo[2,3-d]pyrimidin-2-yl)amino)benzo[d][1,3]dioxol-4-yl)(4-morpholinopiperidin-1-yl)methanone]	100%	36%	100%	8.9%	100%	87%	86%
CNc1nc(Nc2ccc(P3(=O)CCN(C4CCOCC4)CC3)cc2OC)nc2[nH]cc(Cl)c12 [Compound 77, 4-(4-((5-chloro-4-(methylamino)-7H-pyrrolo[2,3-d]pyrimidin-2-yl)amino)-3-methoxyphenyl)-1-(tetrahydro-2H-pyran-4-yl)-1,4-azaphosphinane 4-oxide]	95%	100%	100%	4.7%	64%	50%	96%
